Source: US8142805B1, “Implantable devices including fixed tissues” (Clemson University Research Foundation, priority 2006, dated 2012)

System: hyaluronidase
Test: Hyaluronic acid zymography of explant tissue capsules
Assay type: biochemical, rats
Conditions: developing buffer containing 1 M neomycin; HA gels
Protocol: Hyaluronic acid zymography studies were performed to study the inhibitory effect of neomycin on hyaluronidase. Tissue capsules from 3 weeks explanted treated aortic cusp samples were homogenized and used for gel zymography. Hyaluronic acid (HA) gels were made by incorporating 170 μg/ml of HA in 10% polyacrylamide gels. The tissue extracts were run at 90 Volts for 150 minutes. Protein molecular weight standards (10-150 kDa) were used to identify the molecular weights. Gels were incubated in the developing buffer (two for each sample type) and gels were also incubated in developing buffer containing 1 M neomycin. FIG. 8a and FIG. 8B show similar band intensities for active hyaluronidases in all groups. Thus, presence of more GAGs in Group 1 (Neomycin+EDC+GLUT) was not due to lower enzyme activity in this group as compared to other groups.

## NCC1OC(OC2C(CO)OC(OC3C(O)C(N)CC(N)C3OC3OC(CN)C(O)C(O)C3N)C2O)C(N)C(O)C1O (stereo not shown) [neomycin trisulfate]
  effect on hyaluronidase activity (zymography band density): inhibited enzyme activity
